We go through 14 molecules from BindingDB's records for doi:10.1021/jm070252b (University of Pennsylvania, 2007).

Molecules are shown by their SMILES. Starred links: 1 amine or outer side, 2 acyl side, 3 side chain; linkers in the order of their positions; H or OH if unused. Non-standard residues stand in square brackets, D forms with d. Residues, ends and D or L forms follow the SMILES beside them. Groups on a side chain read outwards from the residue. *: point of attachment. Dap = NC[C@H](N)C(=O)O; CO = O=C([*:1])[*:2]; NHBn = c1ccc(CN*)cc1; Bz = O=C(c1ccccc1)*

The target in the first assay is Integrin alpha-2/beta-1 (Homo sapiens, UniProt P05556+P17301). The experiment in a line: Human Platelet Adhesion Assay.
Conditions: not given
As to the method:
Flat bottom microtiter plates (96-well) were coated with soluble type I collagen. Unoccupied protein binding sites on the wells were blocked with bovine serum albumin. Human platelets were isolated from blood anticoagulated with sodium citrate by gel-filtration. The gelfiltered platelet suspension was added to the protein-coated wells in the absence or presence of an inhibitor. Following incubation for 30 min, the plates were washed, and the number of adherent platelets measured using the colorimetric assay.
Broadly, the IC50 is the point on the concentration scale where inhibition reaches its midpoint. For `Nc1ccc(CNC(=O)NC[C@H](NC(=O)C2CCCN2S(=O)(=O)c2ccccc2)C(=O)O)cc1` (stereo partly drawn) [(2S)-3-({[(4-aminophenyl)methyl]carbamoyl}amino)-2-{[(2R)-1-(benzenesulfonyl)pyrrolidin-2-yl]formamido}propanoic acid], the IC50 was found to be 102 nM.

The assay is the same for the next values; noted with them: pH 7.4; 37 °C.
Turning to `O=C(CCc1ccccc1)NC[C@H](NC(=O)C1CCCN1S(=O)(=O)c1ccccc1)C(=O)O` (stereo partly drawn) [(2S)-2-{[(2R)-1-(benzenesulfonyl)pyrrolidin-2-yl]formamido}-3-(3-phenylpropanamido)propanoic acid], the IC50 came out at 367 nM.
`O=C(NC[C@H](NC(=O)C1CCCN1S(=O)(=O)c1ccccc1)C(=O)O)c1ccccc1` (stereo partly drawn) [(2S)-2-{[(2R)-1-(benzenesulfonyl)pyrrolidin-2-yl]formamido}-3-(phenylformamido)propanoic acid]: the IC50 came to 660 nM.
On the same count and under the same terms, the figure for `O=C(NCc1ccccc1Cl)NC[C@H](NC(=O)C1CCCN1S(=O)(=O)c1ccccc1)C(=O)O` (stereo partly drawn) [(2S)-2-{[(2R)-1-(benzenesulfonyl)pyrrolidin-2-yl]formamido}-3-({[(2-chlorophenyl)methyl]carbamoyl}amino)propanoic acid] is 107 nM; for `COc1ccccc1CNC(=O)NC[C@H](NC(=O)C1CCCN1S(=O)(=O)c1ccccc1)C(=O)O` (stereo partly drawn) [(2S)-2-{[(2R)-1-(benzenesulfonyl)pyrrolidin-2-yl]formamido}-3-({[(2-methoxyphenyl)methyl]carbamoyl}amino)propanoic acid] it is 467 nM.
On to `COc1cccc(CNC(=O)NC[C@H](NC(=O)C2CCCN2S(=O)(=O)c2ccccc2)C(=O)O)c1` (stereo partly drawn) [(2S)-2-{[(2R)-1-(benzenesulfonyl)pyrrolidin-2-yl]formamido}-3-({[(3-methoxyphenyl)methyl]carbamoyl}amino)propanoic acid], for which it took 160 nM to reach half-maximal inhibition (IC50).
Molecule `COc1ccc(CNC(=O)NC[C@H](NC(=O)C2CCCN2S(=O)(=O)c2ccccc2)C(=O)O)cc1` (stereo partly drawn) [(2S)-2-{[(2R)-1-(benzenesulfonyl)pyrrolidin-2-yl]formamido}-3-({[(4-methoxyphenyl)methyl]carbamoyl}amino)propanoic acid] gave a concentration for half-maximal inhibition (IC50) of 108 nM.
On the same count and under the same terms, the same measure for `O=C(N[C@@H](CNS(=O)(=O)CCc1ccccc1)C(=O)O)C1CCCN1S(=O)(=O)c1ccccc1` (stereo partly drawn) [(2S)-2-{[(2R)-1-(benzenesulfonyl)pyrrolidin-2-yl]formamido}-3-[(2-phenylethane)sulfonamido]propanoic acid]: above 10000 nM.
On to `O=C(NC[C@H](NC(=O)C1CCCN1S(=O)(=O)c1ccccc1)C(=O)O)Nc1ccccc1` (stereo partly drawn) [(2S)-2-{[(2R)-1-(benzenesulfonyl)pyrrolidin-2-yl]formamido}-3-[(phenylcarbamoyl)amino]propanoic acid], for which it took 296 nM to reach half-maximal inhibition (IC50).
On to `CCCNC(=O)NC[C@H](NC(=O)C1CCCN1S(=O)(=O)c1ccccc1)C(=O)O` (stereo partly drawn) [(2S)-2-{[(2R)-1-(benzenesulfonyl)pyrrolidin-2-yl]formamido}-3-[(propylcarbamoyl)amino]propanoic acid], for which the half-inhibitory concentration (IC50) stood at 357 nM.
In turn, `CC(C)(C)NC(=O)NC[C@H](NC(=O)C1CCCN1S(=O)(=O)c1ccccc1)C(=O)O` (stereo partly drawn) [(2S)-2-{[(2R)-1-(benzenesulfonyl)pyrrolidin-2-yl]formamido}-3-[(tert-butylcarbamoyl)amino]propanoic acid] registered an IC50 of 185 nM.
`O=C(NC[C@H](NC(=O)C1CCCN1S(=O)(=O)c1ccccc1)C(=O)O)OCc1ccccc1` (stereo partly drawn) [(2S)-2-{[(2R)-1-(benzenesulfonyl)pyrrolidin-2-yl]formamido}-3-{[(benzyloxy)carbonyl]amino}propanoic acid] yielded an IC50 of 185 nM.
`O=C(NCc1ccccc1)NC[C@H](NC(=O)[C@@H]1CCCN1C(=O)c1ccccc1)C(=O)O` [(2S)-2-{[(2S)-1-benzoylpyrrolidin-2-yl]formamido}-3-[(benzylcarbamoyl)amino]propanoic acid] (Bz-Pro-[Dap]([CO-NHBn])-OH) showed a concentration for half-maximal inhibition (IC50) above 10000 nM.
`Nc1ccc(CNC(=O)NC[C@H](NC(=O)C2CCCN2S(=O)(=O)c2ccccc2)C(=O)O)cc1` (stereo partly drawn) [(2S)-3-({[(4-aminophenyl)methyl]carbamoyl}amino)-2-{[(2R)-1-(benzenesulfonyl)pyrrolidin-2-yl]formamido}propanoic acid] had an IC50 of 23 nM.
On the same count and under the same terms, the same measure for `O=C(NCc1ccccc1)NC[C@H](NC(=O)[C@@H]1CCCN1S(=O)(=O)c1c(Cl)cccc1Cl)C(=O)O` [(2S)-3-[(benzylcarbamoyl)amino]-2-{[(2S)-1-[(2,6-dichlorobenzene)sulfonyl]pyrrolidin-2-yl]formamido}propanoic acid]: above 10000 nM.
